Data as given in the supplement of paper PMC10307832.

Columns and labels:
Test in all cases: relative viability (nuclei count vs DMSO), 5 days (fraction); higher = more cells survive
Crenolanib + Tozasertib = compound: CC1(COc2ccc3c(c2)ncn3-c2ccc3cccc(N4CCC(N)CC4)c3n2)COC1 [Crenolanib] + Cc1cc(Nc2cc(N3CCN(C)CC3)nc(Sc3ccc(NC(=O)C4CC4)cc3)n2)n[nH]1 [Tozasertib] (partner 0.1 µM)
In short: (§1)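 One day after seeding in 1536-well plates, lung cancer cell lines were dosed by pin tool. Dosing was either single-drug or a fixed anchor-drug dose plus five library-drug doses (not always all listed) in √10 steps. After 5 days, nuclei were stained in one fix-and-stain step and counted on 4× images, and relative viability is the nuclei count of treated wells over that of vehicle wells, given as the median of duplicate plates.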

Tivantinib + Navitoclax = compound: O=C1NC(=O)[C@@H](c2cn3c4c(cccc24)CCC3)[C@@H]1c1c[nH]c2ccccc12 [Tivantinib] + CC1(C)CCC(c2ccc(Cl)cc2)=C(CN2CCN(c3ccc(C(=O)NS(=O)(=O)c4ccc(N[C@H](CCN5CCOCC5)CSc5ccccc5)c(S(=O)(=O)C(F)(F)F)c4)cc3)CC2)C1 [Navitoclax] (partner 0.5 µM)
In short: as §1

Tivantinib + Crizotinib = compound: O=C1NC(=O)[C@@H](c2cn3c4c(cccc24)CCC3)[C@@H]1c1c[nH]c2ccccc12 [Tivantinib] + C[C@@H](Oc1cc(-c2cnn(C3CCNCC3)c2)cnc1N)c1c(Cl)ccc(F)c1Cl [Crizotinib] (partner 1 µM)
In short: as §1

Tivantinib + Pemetrexed = compound: O=C1NC(=O)[C@@H](c2cn3c4c(cccc24)CCC3)[C@@H]1c1c[nH]c2ccccc12 [Tivantinib] + Nc1nc2[nH]cc(CCc3ccc(C(=O)N[C@@H](CCC(=O)O)C(=O)O)cc3)c2c(=O)[nH]1 [Pemetrexed] (partner 0.2 µM)
In short: as §1

Cell Line | relative viability (Crenolanib + Tozasertib; first compound 0.01 µM) | relative viability (Crenolanib + Tozasertib; first compound 0.03162 µM) | relative viability (Crenolanib + Tozasertib; first compound 0.3162 µM) | relative viability (Crenolanib + Tozasertib; first compound 1 µM) | relative viability (Tivantinib + Navitoclax; first compound 0.01 µM) | relative viability (Tivantinib + Navitoclax; first compound 0.03162 µM) | relative viability (Tivantinib + Navitoclax; first compound 0.1 µM) | relative viability (Tivantinib + Navitoclax; first compound 0.3162 µM) | relative viability (Tivantinib + Crizotinib; first compound 0.01 µM) | relative viability (Tivantinib + Crizotinib; first compound 0.03162 µM) | relative viability (Tivantinib + Crizotinib; first compound 0.1 µM) | relative viability (Tivantinib + Crizotinib; first compound 0.3162 µM) | relative viability (Tivantinib + Pemetrexed; first compound 0.01 µM) | relative viability (Tivantinib + Pemetrexed; first compound 0.03162 µM) | relative viability (Tivantinib + Pemetrexed; first compound 0.1 µM) | relative viability (Tivantinib + Pemetrexed; first compound 0.3162 µM) | relative viability (Crenolanib + Tozasertib; first compound 0.1 µM)
HCC-78 | 0.366 | 0.395 | 0.406 | 0.368 | 0.853 | 0.683 | 0.8 | 0.3 | 0.341 | 0.321 | 0.317 | 0.206 | 0.893 | 0.878 | 0.933 | 0.879 | –
HOP-62 | 0.357 | 0.332 | 0.342 | 0.341 | 0.9 | 0.859 | 1.07 | 1.02 | 0.828 | – | 0.972 | 1.03 | 0.333 | 0.29 | 0.368 | 0.247 | 0.43
NCI-H1623 | 0.492 | 0.439 | 0.41 | 0.421 | – | – | – | – | – | – | – | – | – | – | – | – | 0.437
NCI-H2405 | 0.859 | 0.737 | 0.502 | 0.691 | 1.17 | 0.766 | 0.973 | 0.305 | 0.892 | 0.879 | 0.821 | 0.821 | 1.12 | 1.25 | 1.09 | 1.05 | –
PC-3 [JPC-3] | 0.889 | 0.856 | 0.902 | 0.87 | 0.775 | 0.829 | 0.801 | 0.574 | 1.03 | 1.05 | 0.996 | 0.759 | 1.24 | 1.27 | 1.21 | 0.72 | 0.81
NCI-H1666 | 0.695 | 0.613 | 0.591 | 0.555 | 0.94 | 0.79 | 0.961 | 0.568 | 0.955 | 1.03 | 0.993 | 0.992 | 0.841 | 0.867 | 0.853 | 0.673 | 0.633
HCC-15 | 0.397 | 0.313 | 0.378 | 0.427 | 0.728 | 0.628 | 0.684 | 0.698 | 0.722 | 0.791 | 0.731 | 0.853 | 0.215 | 0.221 | 0.227 | 0.224 | 0.444
NCI-H1651 | 0.649 | 0.716 | 0.852 | 0.61 | 1.02 | 0.928 | 1.03 | 0.938 | 0.893 | 0.828 | 0.867 | 0.762 | 0.553 | 0.548 | 0.572 | 0.58 | 0.592
NCI-H1395 | 0.742 | 0.759 | 0.691 | 0.659 | 1.48 | 1.17 | 1.19 | 1.58 | – | – | – | – | 1.03 | 0.843 | 0.975 | 0.782 | 0.81
EPLC-272H | 0.385 | 0.352 | 0.286 | 0.377 | 1.12 | 1.27 | 1.05 | 1.01 | 1.04 | 0.963 | 0.785 | 0.82 | 0.408 | 0.356 | 0.344 | 0.182 | 0.257
